What was measured:
IL-1a = test: DPM-induced IL-1a production in EpiDerm 3D reconstructed skin model; format: cell-based, human; conditions: 48 hours, FIG. 6
Procedure: The EpiDerm reconstructed skin system was obtained from the supplier MatTek (catalogue number EPI-200), and the tissue was handled according to the manufacturer's instructions. Briefly, upon delivery, the tissue was removed from its agar medium, washed and then left to recover overnight at 37 C, in a 5% CO2 environment. Then, the tissue was treated with topically-applied DPM (100 μg/ml in PBS, 10 μl/sample) in the presence or absence of the phytoene oleoresin diluted in jojoba wax at concentrations of 0.1, 1 and 2.5%, to a final volume of 30 μl. The following control groups were also set up: naïve tissue (untreated control), vehicle (jojoba wax), DPM-stimulated tissue and N-acetyl cysteine (NAC; positive control). Following addition of the test substances and controls, the reconstructed skin cultures were incubated for a further 48 hours at 37 C, in a 5% CO2 environment. At the end of the treatment period, the medium was collected from the tissue control implants and centrifuged at 250×g for 5 minutes, in order to remove particulate matter. […] IL-1a and IL-6 levels in the thawed medium were determined using commercial ELISA kits (ELISA Max Deluxe Set Human IL-1a catalogue number B265424; ELISA Max Deluxe Set Human IL-6 catalogue number B2852558; both supplied by Enco), according to the manufacturer's instructions.

IL-8 = test: Inhibition of UVB-induced IL-8 production in cultured HaCaT keratinocytes; format: cell-based, human; conditions: UVB lamp, test at final phytoene concentration 56 ppm, FIG. 5
Procedure: Spontaneously transformed adult human keratinocytes of the HaCaT line were grown, maintained, plated and treated with control and test substances as described in Example 1, above. The cultured cells were irradiated using a UVB lamp in order to generate an inflammatory response in the cultured cells. The control substances used in this study were: • Vehicle control (“Control” in FIG. 5) • UVB exposure only (“Untreated”) • 4-Aminobenzoic acid (“PABA”; positive control) The test substance used was a dilution of the composition of the present invention (i.e., containing non-GMO, solvent free phytoene and jojoba oil), yielding a final phytoene concentration of 56 ppm. The IL-8 concentration of the culture cell supernatants was measured as described in Example 1, above.

SMILES	reduction in IL-1a production (positive control) (IL-1a)	reduction in UVB-stimulated IL-8 production (IL-8)
CC(=O)N[C@@H](CS)C(=O)O [NAC, N-acetyl cysteine]	reduction	–
Nc1ccc(C(=O)O)cc1 [PABA, 4-Aminobenzoic acid]	–	inhibition
